# Entries after “also recorded” stand apart in the source; their conditions may differ.
# Key:
# Akt = Akt phosphorylation by immunoblot in PC3 prostate carcinoma cells; assay type: cell-based, human; conditions: for Akt phosphorylation at Ser473: PC3 cells, 500 μM of each compound, various timepoints
# Experimental: Such dephosphorylation may be the result of a direct inhibitory effect on the Akt protein itself, or alternatively, can be similarly achieved indirectly by boosting a negative regulator or inhibiting a positive regulator of Akt phosphorylation. […] PC3 prostate carcinoma cells were plated in 100 mm dishes, and when 70-80% confluent serum starved overnight. […] Cells were lysed, and the level of Akt Ser473 phosphorylation determined by immunoblot analysis with an activation specific antibody, and comparison made to levels of Akt protein expressed. To determine the effect on purified Akt, similarly plated but untreated PC3 cells were lysed in RIPA (minus phosphatase inhibitors), a stringent cell lysis buffer that minimizes maintenance of protein-protein complexes. […] The immunoprecipitated protein was then resolved and the level of activated Akt determined by immunoblot analysis as described above.
# A reduction in net Akt activity could be achieved indirectly by either preventing the initial Akt phosphorylation, or alternatively, increasing Akt dephosphorylation [Kohn et. al. 1996]. […] Initially okadaic acid, a polyether toxin from red-tide algae (and causative agent of diarrhoetic shellfish poisoning) which inhibits the phospho-protein phosphatases PP1 and PP2A, two phosphatases implicated in the regulation of Akt dephosphorylation was used [Fernandez et al., 2002]. 5×10^5 PC3 prostate carcinoma cells were plated per well of a 6 well plate, allowed attach for 8 h, and then serum starved overnight. […] Lysed cells were resolved by SDS-PAGE, then probed for Akt phosphorylation at the Ser473 residue by immunoblot analysis with an antibody that specifically recognizes Akt when phosphorylated at this site, and comparison made with the total levels of Akt protein expressed (FIG. 2A).
# This panel included tautamycin 500 nM (PP1), okadaic acid 500 nM (low dose PP2A>PP1), endothall A (PP2A) 100 μM, calyculin A 2 nM (low dose PP1>PP2A), calyculin A 10 nM (high dose inhibits PP1 and PP2A) and cyclosporine A 400 ng/ml (PP2B). […] Again, lysed cells were resolved by SDS-PAGE, then membranes probed for Akt phosphorylation at the Ser^473 residue by immunoblot analysis with an antibody that specifically recognizes Akt when phosphorylated at this site, and comparison made with the total levels of Akt protein expressed.
# 5×10^5 PC3 prostate carcinoma cells were plated per well in a 6-well plate, allowed to attach for 8 h, and then serum starved overnight. […] Equal amounts of whole cell lysates were resolved, and then subjected to immunoblot analysis to determine the level of phosphorylated Akt Ser^473. Comparison was then made with the total level of Akt protein expressed.
# The phosphorylation status of Akt in whole cell lysates was determined using activation specific antibodies.
# Other inorganic (sodium selenite, selenium dioxide, selenium sulphide and selenious acid) and organic (methylselenocysteine, selenocystine) selenium species were tested for their ability to affect Akt activation. All forms were dissolved in water with the exception of selenium sulphide which was solubilised in DMSO, and added to serum starved PC3 cells at a concentration of 500 μM for 1 hour, Whole cell lysates were then resolved, and the activation status of Akt determined by immunoblotting with an antibody that specifically recognizes Akt when phosphorylated at the Ser473 site, as well as the total level of Akt expression (pan Akt). To quantify the degree of Akt activation, immunoblots were digitalised, and the ratio of phosphorylated Akt to total Akt determined by densitometry.
# [1] = target: T1, PP2A catalytic subunit complexed with Akt (Homo sapiens, UniProt P67775); assay: Co-immunoprecipitation of PP2A catalytic subunit with Akt from PC3 cells; assay type: cell-based; conditions: 500 μM, 1.5 h, densitometry
# T1 construct: Total Akt was immunoprecipitated from 400 μg of each whole cell lysate using a monoclonal anti-Akt antibody; endogenous in cells; host or cells: PC3 prostate carcinoma cells
# Experimental: 1×10^6 PC3 prostate carcinoma cells were plated onto 6 cm dishes, allowed attach for 8 h, and then serum starved overnight. […] Total Akt was immunoprecipitated from 400 μg of each whole cell lysate using a monoclonal anti-Akt antibody, and captured with protein A-sepharose beads. […] Following washing to reduce non-specific binding, the beads were boiled for 5 min in 3× SDS protein loading buffer, centrifuged at high speed and the supernatant resolved by SDS-PAGE. The level of PP2A binding was determined by immunoblot analysis with an antibody that specifically recognizes the catalytic subunit of the phosphatase, and comparison made with the amount of Akt pulled down and the concentration of precipitating antibody (IgG). […] To quantify this increase in complex formation, representative immunoblots from three independent experiments were digitalized, subjected to densitometric analysis, and normalized to the control for each experiment. The mean ratio of PP2A catalytic subunit to total immunoprecipitated Akt protein ±SEM was then determined.
# 100-600 μg of whole cell lysate was incubated with various antibodies at a 1:100 dilution in microfuge tubes on a rotating wheel for 1-2 h at RT or 16 h at 4° C. as indicated. Following brief centrifugation, 30-40 μl of pre-washed 50% Protein-A Sepharose Fast Flow beads (Sigma #9424) was added to each tube and rotated at 4° C. for 1 h at RT or 4° C. […]
# PHF-Tau = conditions: 100 μM, 3 hours
# Experimental: In Vitro: 2×10^5 SY5Y or BE2M17 cells were plated to each well in a Falcon 6-well plate, either over coated or uncoated surfaces, and were allowed to attached overnight at 5% CO2/37° C. in complete growth medium (as described above). […] Cells were cultured over Falcon 6-well plates with surfaces coated either with 0.1% gelatin (Sigma, St Louis, Mo., USA), matrigel (cat #354234, BD, NSW, Australia) or 0.5 μg/ml fibronectin (Sigma, St Louis, Mo., USA).
# Lysates preparation and Immunoblotting: Cells were washed twice in cold PBS and were lysed in 150 μl of cold RIPA buffer (containing 10% glycerol, 20 mM Tris, 137 mM NaCl, 0.1% SDS, 0.05% IGEPAL, 1% Triton X-100, 2 mM EDTA, 10% NaV, 2% NaF and 4× protease inhibitor), similarly, brain tissues were homogenised in dry ice using mortar and pestle, and lysed in 150 μl RIPA buffer. Samples were incubated on ice for 30 minutes, followed by centrifugation at 13000 rpm/ 10 minutes/ 4° C. Supernantant was collected and protein estimation was calculated for each sample by using BCA reagent (Sigma). Equal amounts of protein were loaded into each lane of a 10% SDS-polyacrylamide gel. The proteins were transferred onto PVDF (Millipore) membranes and were blocked with 5% skim milk blotto for 2 hours. After blocking the membrane, primary antibodies: either anti-human PHF-Tau (AT100 at 1:200, AT180 at 1:1000, and AT270 at 1:2500) or anti-human Tau (HT-7 at 1:1000) were incubated overnight at 4° C. in 5% skim milk blotto. Prior to secondary antibody incubation, membranes were rinsed 3× followed by 3×5 minutes washed in Tris-Buffered Saline with 0.01% Tween at room temperature. Followed by 1 hour incubation of secondary antibody polyclonal goat anti-mouse (Dako, Denmark) coupled to horse radish peroxidase (HRP) at 1:10000 dilutions in 5% skim milk blotto/room temperature. Membranes were washed as described above and were detected by using Amersham ECL western blotting detection reagent (Amersham Bioscience, Buckinghamshire, UK). Membranes were stripped using 2% SDS/β-Mercaptoethanol stripping buffer and reprobed for tubulin (Promega) to confirm protein loading.
# [2] = serum free PC3 cells, 500 μM, various times
# [3] = BE2M17 cells on fibronectin, plastic (uncoated) and matrigel
# T1 sequence (P67775 whole entry): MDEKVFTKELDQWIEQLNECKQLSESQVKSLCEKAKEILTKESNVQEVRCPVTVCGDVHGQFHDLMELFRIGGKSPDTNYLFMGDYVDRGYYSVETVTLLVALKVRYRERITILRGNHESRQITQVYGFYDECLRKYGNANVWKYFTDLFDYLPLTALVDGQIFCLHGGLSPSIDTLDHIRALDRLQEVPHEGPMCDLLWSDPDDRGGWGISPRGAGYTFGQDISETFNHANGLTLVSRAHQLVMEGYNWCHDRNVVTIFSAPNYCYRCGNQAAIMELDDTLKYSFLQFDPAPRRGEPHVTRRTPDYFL
# T1 sequence (P30153 2-589 partner limits assumed): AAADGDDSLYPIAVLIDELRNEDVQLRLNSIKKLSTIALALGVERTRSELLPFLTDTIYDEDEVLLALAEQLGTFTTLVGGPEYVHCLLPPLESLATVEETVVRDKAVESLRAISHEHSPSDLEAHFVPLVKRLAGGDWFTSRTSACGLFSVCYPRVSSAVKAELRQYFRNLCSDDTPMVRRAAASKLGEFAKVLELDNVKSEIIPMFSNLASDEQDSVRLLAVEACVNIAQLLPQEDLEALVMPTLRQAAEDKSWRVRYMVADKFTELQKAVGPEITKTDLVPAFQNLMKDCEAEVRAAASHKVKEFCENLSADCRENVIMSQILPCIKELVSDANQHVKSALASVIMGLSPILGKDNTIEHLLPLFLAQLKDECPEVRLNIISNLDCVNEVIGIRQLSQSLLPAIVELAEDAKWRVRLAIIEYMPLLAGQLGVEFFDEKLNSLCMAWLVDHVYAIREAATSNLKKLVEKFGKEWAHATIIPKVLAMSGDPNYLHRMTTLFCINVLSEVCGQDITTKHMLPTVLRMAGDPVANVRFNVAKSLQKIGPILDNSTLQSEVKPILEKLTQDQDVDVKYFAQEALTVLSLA
smiles,measurement,setting,value
O=[Se](=O)(O)O [sodium selenate],Akt phosphorylation at Ser473,Akt,profoundly inhibited Akt phosphorylation
same,Akt phosphorylation at Ser473,Akt; listed as selenate,inhibited Akt phosphorylation
same,Akt Ser473 phosphorylation,"Akt; intact serum starved PC3 cells, sodium selenate 500 μM, 1 h",profound reduction in Akt phosphorylation; also recorded: markedly reduces the chronically high levels of Akt phosphorylation; also recorded: marked decrease in the phosphorylation of Akt; also recorded: markedly reduced the level of Akt phosphorylation
same,"phosphorylation of Akt at Ser473 and Thre308, after the initial boost",Akt; [2],marked and prolonged deactivation
same,total cellular Akt levels (pan Akt),Akt; [2],remained essentially unchanged
same,"phosphorylation of Akt at Ser473 and Thre308, early","Akt; serum free PC3 cells, 500 μM, within 10 minutes of exposure",transient boost in phosphorylation of Akt
same,Akt activation: ratio of phosphorylated Akt to total Akt versus control,"Akt; serum starved PC3 cells, 500 μM, 1 hour, densitometry",inhibits activation of Akt
same,reduction in Akt phosphorylation at Ser473 compared to untreated cells,"Akt; serum starved PC3 cells, 500 μM, 1 hour, densitometry, p<0.05",greater than 80%
same,increase in the binding of PP2A catalytic subunit to Akt protein,[1],approximately 50%
same,"PHF-Tau signal, clone AT100 (68 kDa)",PHF-Tau; BE2M17 cells on fibronectin and matrigel,PHF-Tau signal appeared to be reduced
same,"Tau expression, clone HT-7 (68, 64, 57 kDa)",PHF-Tau; BE2M17 cells on fibronectin,appeared to reduce Tau expression
same,"PHF-Tau signal, clone AT180 (71 and 67 kDa)",PHF-Tau; [3],weaker PHF-Tau signal
same,"PHF-Tau signal, clone AT270 (66 and 63 kDa)",PHF-Tau; [3],weaker PHF-Tau signal
same,"PHF-Tau signal, clone AT270, cells on matrigel",PHF-Tau; BE2M17 cells on matrigel,only a slight difference between selenate treated and non-treated cells
same,"anti-Tau signal, clone HT-7 (60 kDa)",PHF-Tau; SY5Y cells on fibronectin,weaker signal for anti-Tau
same,"PHF-Tau signal, clone AT270 (70 kDa)",PHF-Tau; SY5Y cells on gelatin and fibronectin,weaker PHF-Tau signal
